Experimental data: ChEMBL document CHEMBL1127891, “Benzopyran potassium channel activators related to cromakalim - heterocyclic amide replacements at position 4” (1994)

Experiments:
Format in all cases: functional
Rattus norvegicus [1] = test: Tested for antihypertensive activity expressed as max fall in BP in spontaneously hypertensive rats (SHR), at the dose of 0.1 mg/kg
Rattus norvegicus [2] = test: Tested for antihypertensive activity expressed as max fall in BP in spontaneously hypertensive rats (SHR), at the dose of 1 mg/kg
Rattus norvegicus [3] = test: Tested for antihypertensive activity expressed as max fall in BP in spontaneously hypertensive rats (SHR), at the dose of 0.3 mg/kg
Rattus norvegicus [4] = test: Tested for antihypertensive activity expressed as max fall in BP in spontaneously hypertensive rats (SHR), at the dose of 3.0 mg/kg
Rattus norvegicus [5] = test: Tested for antihypertensive activity expressed as max fall in BP in spontaneously hypertensive rats (SHR), at the dose of 10.0 mg/kg

SMILES: CC1(C)Oc2ccc(C#N)cc2[C@@H](N2CCCC2=O)[C@@H]1O [CROMAKALIM]
- Max fall in blood pressure (Rattus norvegicus [1]): 13
- Max fall in blood pressure (Rattus norvegicus [2]): 47
- Max fall in blood pressure (Rattus norvegicus [3]): 39

SMILES: Cn1ncnc1N[C@@H]1c2cc(C#N)ccc2OC(C)(C)[C@H]1O
- Max fall in blood pressure (Rattus norvegicus [2]): 35
- Max fall in blood pressure (Rattus norvegicus [3]): 22

SMILES: CC1(C)Oc2ccc(C#N)cc2[C@@H](Nc2n[nH]c(N)n2)[C@@H]1O
- Max fall in blood pressure (Rattus norvegicus [4]): 19

SMILES: Cn1nc(N)nc1N[C@@H]1c2cc(C#N)ccc2OC(C)(C)[C@H]1O
- Max fall in blood pressure (Rattus norvegicus [1]): 30
- Max fall in blood pressure (Rattus norvegicus [3]): 56

SMILES: Cn1nc(N[C@@H]2c3cc(C#N)ccc3OC(C)(C)[C@H]2O)nc1N
- Max fall in blood pressure (Rattus norvegicus [5]): 33

SMILES: Cc1nc(N[C@@H]2c3cc(C#N)ccc3OC(C)(C)[C@H]2O)n(C)n1
- Max fall in blood pressure (Rattus norvegicus [2]): 22
- Max fall in blood pressure (Rattus norvegicus [4]): 37

SMILES: CC1(C)Oc2ccc(C#N)cc2[C@@H](Nc2nc(N)no2)[C@@H]1O
- Max fall in blood pressure (Rattus norvegicus [2]): 16
- Max fall in blood pressure (Rattus norvegicus [4]): 32

SMILES: CC1(C)Oc2ccc(C#N)cc2[C@@H](Nc2n[s+]([O-])nc2N)[C@@H]1O (some centres not stated)
- Max fall in blood pressure (Rattus norvegicus [4]): 20

SMILES: C/N=C(\NC#N)N[C@@H]1c2cc(C#N)ccc2OC(C)(C)[C@H]1O
- Max fall in blood pressure (Rattus norvegicus [2]): 41
- Max fall in blood pressure (Rattus norvegicus [3]): 16

SMILES: Cc1noc(N[C@@H]2c3cc(C#N)ccc3OC(C)(C)[C@H]2O)n1
- Max fall in blood pressure (Rattus norvegicus [4]): 31
